What was measured:
DNMT1 = DNMT1 expression in K562 cells (FIG. 6); format: cell-based; conditions: 100 nM azacytidine, decitabine or cytarabine
LXN [1] = test: LXN gene expression by microarray in KBM5 cells; format: cell-based; conditions: 100 nM OR21, 1000 nM imatinib
Protocol: (§1) K562 cells (cell lines derived from CML) were purchased from JCRB cell bank and KBM5 cells (cell lines derived from CML) were provided by Dr. M. Beran (MD Anderson Cancer Center, University of Texas). These calls were cultured in an RPMI 1640 medium containing 10% fetal bovine serum (FBS) and 1% penicillin-streptomycin at 37° C. in atmosphere of 5% CO2.
(§2) After the culture, mRNA was collected and gene expression was comprehensively analyzed by microarrays.

LXN [2] = test: LXN protein expression by Western blotting, OR21 with TKI (FIG. 5); format: cell-based; conditions: K562 and KBM5 cells, 100 nM OR21, 1000 nM imatinib, 2.5 nM dasatinib, 1, 2 and 3 days, corrected with β actin
Protocol: as §1
0, 24, and 48 hours after the cell seeding, 100 nM OR21, a DNA methyltransferase inhibitor, was added. […] After the culture, the cells were collected, dissolved, and determined for protein expression level of LXN by Western blotting. […] The expression level of LXN shown in FIG. 5 represents each expression level of the cases when the LXN expression under each condition was corrected with β actin and the expression level in the control was taken as 1.0.

LXN [3] = test: LXN gene expression by microarray in K562 cells; format: cell-based; conditions: 100 nM OR21, 1000 nM imatinib
Protocol: as §1, §2

stem cells of CML = test: Limiting dilution assay in secondarily transplanted mice; format: in vivo; conditions: peripheral blood, 16 weeks after secondary transplantation; compared to vehicle or IM donor group
Protocol: Then, engraftment of GFP positive cells in the peripheral blood (PB) at 16 weeks after the secondary transplantation was determined and analyzed by limiting dilution assay. […] The bottom row of the table indicates the cell number required to be engrafted. The larger numbers mean that it is more difficult to engraft. It is noted that engraftment of GFP positive cells is defined to have a GFP positive rate of 0.5% or more in the peripheral blood of recipient mice. […] The higher plots or slope of the lines mean that it is more difficult to engraft.

[4] = test system: stem cells or progenitor cells of CML; test: Mouse model of CML (recipient mice engrafted with GFP positive MIG-BCR-ABL1 myeloid cells); format: in vivo; conditions: after 12 days of administration, OR21 1.35 mg/kg i.p., IM 150 mg/kg oral
Protocol: Recipient mice were engrafted with myeloid cells to which GFP positive MIG-BCR-ABL1 had been introduced and used as CML models. […] After administration of the drugs to each group for 12 days, the GFP positive cells in peripheral blood, bone marrow, and spleen were determined. Inter-group comparisons were performed by a significance test of Mann-Whitney U-tests (p<0.05, **p<0.01) in FIG. 1.

LXN [5] = test: LXN protein expression by Western blotting in K562 cells, azacytidine/decitabine/cytarabine with imatinib (FIG. 6); format: cell-based; conditions: 100 nM azacytidine, decitabine or cytarabine, 1000 nM imatinib
Protocol: 0, 24, and 48 hours after the cell seeding, azacytidine (100 nM), decitabine (100 nM), or cytarabine (100 nM) was added to K562 cell culture, cultured for 2 days. […] After the culture, the cells were collected, dissolved, and determined for protein expression level of LXN by Western blotting. The expression level of LXN shown in FIG. 6 represents each expression level of the cases when the LXN expression under each condition was corrected with β actin and the expression level in the control was taken as 1.0.

Row | Compound | expression of DNMT1 (DNMT1) | gene expression level of LXN in respect of the control (LXN [1]) | protein expression level of LXN (LXN [2]) | gene expression level of LXN in respect of the control (LXN [3]) | protein expression of LXN (LXN [5]) | other results
1 | Nc1ncn([C@@H]2O[C@H](CO)[C@@H](O)[C@H]2O)c(=O)n1 [azacytidine, 4-amino-1-β-D-ribofuranosyl-s-triazin-2(1H)-one] | reduced | – | – | – | – | –
2 | Cc1ccc(NC(=O)c2ccc(CN3CCN(C)CC3)cc2)cc1Nc1nccc(-c2cccnc2)n1 [imatinib] | – | 1.9 times | almost no effect | 1.3 times | – | –
3 | CC[Si](CC)(CC)OC[C@H]1O[C@@H](n2cnc(N)nc2=O)C[C@@H]1O [OR21] | – | 3.4 times | increase in the protein expression level of LXN over time | 4.5 times | – | GFP positive cells in mice of the secondary transplantation (stem cells of CML): significantly reduced; linage-negative cells (Lin-) in bone marrow [4]: decreased; Lin-Sca-1+c-Kit+ (LSK) cells ([4]; bone marrow): decreased; GFP positive cell rate ([4]; peripheral blood, bone marrow and spleen, compared to vehicle group): significant decrease
4 | Nc1ccn([C@@H]2O[C@H](CO)[C@@H](O)[C@@H]2O)c(=O)n1 [cytarabine] | did not exhibit inhibitory effect | – | – | – | no increase | –
5 | Nc1ncn([C@H]2C[C@H](O)[C@@H](CO)O2)c(=O)n1 [decitabine, 4-amino-1-(2-deoxy-β-D-erythro-pentofuranosyl)-1,3,5-triazin-2(1H)-one] | reduced | – | – | – | increased | –
